Each compound was assayed against T1, recombinant human NK3 receptor (Homo sapiens, UniProt P29371) (assay: [3H]SR142801 competition binding assay). Details: membranes from HEK293 cells transiently expressing recombinant human NK3 receptor; [3H]SR142801 radioligand; Ki by Cheng-Prussoff.
T1 construct: expressed in transfected cells; host or cells: HEK293 cells, transient expression; membranes
T1 sequence (P29371 1-465): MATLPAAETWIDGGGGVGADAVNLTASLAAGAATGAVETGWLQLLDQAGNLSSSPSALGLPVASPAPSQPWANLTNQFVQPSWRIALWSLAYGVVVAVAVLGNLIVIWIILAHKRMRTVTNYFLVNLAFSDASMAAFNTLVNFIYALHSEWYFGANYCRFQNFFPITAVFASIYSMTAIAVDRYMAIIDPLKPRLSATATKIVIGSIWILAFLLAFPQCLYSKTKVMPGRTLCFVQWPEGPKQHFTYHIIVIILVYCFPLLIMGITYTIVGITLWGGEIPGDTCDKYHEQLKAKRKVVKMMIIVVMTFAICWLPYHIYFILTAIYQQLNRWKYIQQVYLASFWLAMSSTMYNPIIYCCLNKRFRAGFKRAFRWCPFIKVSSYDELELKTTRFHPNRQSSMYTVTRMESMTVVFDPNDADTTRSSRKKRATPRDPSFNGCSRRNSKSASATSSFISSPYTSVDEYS
Description: [^3H]SR142801 Competition Binding Assay
hNK3 receptor binding experiment were performed using [^3H]SR142801 (Catalog No. TRK1035, specific activity: 74.0 Ci/mmol, Amersham, GE Healthcare UK limited, Buckinghamshire, UK) and membrane isolated from HEK293 cells transiently expressing recombinant human NK3 receptor. After thawing, the membrane homogenates were centrifuged at 48,000×g for 10 min at 4° C., the pellets were resuspended in the 50 mM Tris-HCl, 4 mM MnCl2, 1 μM phosphoramidon, 0.1% BSA binding buffer at pH 7.4 to a final assay concentration of 5 μg protein/well. For inhibition experiments, membranes were incubated with [^3H]SR142801 at a concentration equal to KD value of radioligand and 10 concentrations of the inhibitory compound (0.0003-10 μM) (in a total reaction volume of 500 μl) for 75 min at room temperature (RT). At the end of the incubation, membranes were filtered onto unit filter (96-well white microplate with bonded GF/C filter preincubated 1 h in 0.3% PEI+0.3% BSA, Packard BioScience, Meriden, Conn.) with a Filtermate 196 harvester (Packard BioScience) and washed 4 times with ice-cold 50 mM Tris-HCl, pH 7.4 buffer. Nonspecific binding was measured in the presence of 10 μM SB222200 for both radioligands. The radioactivity on the filter was counted (5 min) on a Packard Top-count microplate scintillation counter with quenching correction after addition of 45 μl of microscint 40 (Canberra Packard S. A., Zürich, Switzerland) and shaking for 1 h. Inhibition curves were fitted according to the Hill equation: y=100/(1+(x/IC50)^nH), where nH=slope factor using Excel-fit 4 software (Microsoft). IC50 values were derived from the inhibition curve and the affinity constant (Ki) values were calculated using the Cheng-Prussoff equation Ki=IC50/(1+[L]/KD) where [L] is the concentration of radioligand and KD is its dissociation constant at the receptor, derived from the saturation isotherm. All experiments were performed in duplicate and the mean±standard error (SEM) of the individual Ki values was calculated.

SMILES	Ki [nM]
CC(=O)N1CCN(CC(=O)N2C[C@@H]([C@@H](C)Oc3ccc(Cl)cc3)[C@H](c3ccc(Cl)c(Cl)c3)C2)CC1 (racemic) [Example 66, 2-(4-Acetyl-piperazin-1-yl)-1-[(3SR,4RS)-3-[(RS)-1-(4-chloro-phenoxy)-ethyl]-4-(3,4-dichloro-phenyl)-pyrrolidin-1-yl]-ethanone]	11
C[C@@H](Oc1ccc(C(F)(F)F)cc1)[C@@H]1CN(C(=O)N2CCC(N(C)S(C)(=O)=O)CC2)C[C@H]1c1ccc(Cl)c(Cl)c1 (racemic) [Example 18, N-(1-{(3RS,4SR)-3-(3,4-Dichloro-phenyl)-4-[(RS)-1-(4-trifluoromethyl-phenoxy)-ethyl]-pyrrolidine-1-carbonyl}-piperidin-4-yl)-N-methyl-methanesulfonamide]	77.9
C[C@H](Oc1ccc(C(F)(F)F)cn1)[C@H]1CN(C(=O)N2CC3CC2CO3)C[C@@H]1c1ccc(Cl)c(Cl)c1 (mixture of isomers) [Example 73, {(3SR,4RS)-3-(3,4-Dichloro-phenyl)-4-[(SR)-1-(5-trifluoromethyl-pyridin-2-yloxy)-ethyl]-pyrrolidin-1-yl}-(2-oxa-5-aza-bicyclo[2.2.1]hept-5-yl)-methanone]	93
C[C@@H](Oc1ccc(Cl)cn1)[C@@H]1CN(C(=O)N2CCN(S(C)(=O)=O)CC2)C[C@H]1c1ccc(Cl)c(Cl)c1 (racemic) [Example 39, [(3SR,4RS)-3-[(RS)-1-(5-Chloro-pyridin-2-yloxy)-ethyl]-4-(3,4-dichloro-phenyl)-pyrrolidin-1-yl]-(4-methanesulfonyl-piperazin-1-yl)-methanone]	2.9
C[C@@H](Oc1ccc(C#N)cc1)[C@@H]1CN(C(=O)N2CCN(S(C)(=O)=O)CC2)C[C@H]1c1ccc(Cl)c(Cl)c1 (racemic) [Example 33, 4-{(RS)-1-[(3SR,4RS)-4-(3,4-Dichloro-phenyl)-1-(4-methanesulfonyl-piperazine-1-carbonyl)-pyrrolidin-3-yl]ethoxy}-benzonitrile]	75.6
C[C@@H](Oc1ccc(Cl)cn1)[C@@H]1CN(C(=O)CN2CC3CC2CO3)C[C@H]1c1ccc(Cl)c(Cl)c1 (stereo partly drawn) [Example 68, 1-[(3S,4R)-3-[(R)-1-(5-Chloro-pyridin-2-yloxy)-ethyl]-4-(3,4-dichloro-phenyl)-pyrrolidin-1-yl]-2-(2-oxa-5-aza-bicyclo[2.2.1]hept-5-yl)-ethanone]	27
C[C@@H](Oc1ccc(C(F)(F)F)cc1)[C@@H]1CN(C(=O)N2CCN(S(C)(=O)=O)CC2)C[C@H]1c1ccc(Cl)c(Cl)c1 (racemic) [Example 16, {(3RS,4SR)-3-(3,4-Dichloro-phenyl)-4-[(RS)-1-(4-trifluoromethyl-phenoxy)-ethyl]-pyrrolidin-1-yl}-(4-methanesulfonyl-piperazin-1-yl)-methanone]	28.8
C[C@H](Oc1ccc(F)cc1)[C@@H]1CN(C(=O)N2CCN(S(C)(=O)=O)CC2)C[C@H]1c1ccc(Cl)c(Cl)c1 (racemic) [Example 46, {(3RS,4SR)-3-(3,4-Dichloro-phenyl)-4-[(SR)-1-(4-fluoro-phenoxy)-ethyl]-pyrrolidin-1-yl}-(4-methanesulfonyl-piperazin-1-yl)-methanone]	49.7
C[C@@H]1CN(C(=O)N2C[C@@H]([C@@H](C)Oc3ccc(Cl)cn3)[C@H](c3ccc(Cl)c(Cl)c3)C2)CCN1S(C)(=O)=O (mixture of isomers) [Example 54, [(3SR,4RS)-3-[(RS)-1-(5-Chloro-pyridin-2-yloxy)-ethyl]-4-(3,4-dichloro-phenyl)-pyrrolidin-1-yl]-((R)-4-methanesulfonyl-3-methyl-piperazin-1-yl)-methanone]	2
C[C@H](Oc1ccc(C#N)cn1)[C@H]1CN(C(=O)CN2CCC(C#N)CC2)C[C@@H]1c1ccc(Cl)c(Cl)c1 (racemic) [Example 70, 6-{(SR)-1-[(3RS,4SR)-1-[2-(4-Cyano-piperidin-1-yl)-acetyl]-4-(3,4-dichloro-phenyl)-pyrrolidin-3-yl]-ethoxy}-nicotinonitrile]	86
